Measured values from patent US20180057505A1, “BICYCLIC HETEROARYL COMPOUNDS USEFUL AS INHIBITORS OF THE PAR-2 SIGNALING PATHWAY” (VERTEX PHARMACEUTICALS INCORPORATED, priority 2015, published 2018).

Legend:
Format in all cases: cell-based
PAR2 (HT-29 cells) [1] = target: T1, PAR2 (HT-29 cells) (Homo sapiens, UniProt P55085); test: Ca FLIPR TETRA assay, ANTAGONIST mode, activator 8 μM SLIGKV; details: HT-29 cells, activator 8 μM SLIGKV
T1 construct: host or cells: HT-29
T1 sequence (P55085 26-397): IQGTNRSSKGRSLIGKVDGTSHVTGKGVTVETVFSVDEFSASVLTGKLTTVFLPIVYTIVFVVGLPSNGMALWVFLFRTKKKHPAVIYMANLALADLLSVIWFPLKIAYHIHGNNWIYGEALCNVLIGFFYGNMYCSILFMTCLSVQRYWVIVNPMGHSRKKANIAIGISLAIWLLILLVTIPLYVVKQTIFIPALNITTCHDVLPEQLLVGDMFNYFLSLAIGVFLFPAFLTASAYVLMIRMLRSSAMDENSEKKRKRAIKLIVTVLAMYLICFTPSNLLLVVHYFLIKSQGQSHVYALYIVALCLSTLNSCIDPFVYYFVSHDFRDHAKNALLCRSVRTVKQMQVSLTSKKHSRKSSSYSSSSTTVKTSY
Outline: (§1)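 HT-29 cells plated overnight at 37 °C in 1% FBS/McCoy's, loaded with calcium 5 dye (45 min 37 °C, 15 min r.t.), then preincubated with compounds 30 min at r.t. before a fixed activator challenge. Intracellular Ca2+ read by FLIPR Tetra; a first read checks compound-alone activation.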

PAR2 (HT-29 cells) [2] = target: T1, PAR2 (HT-29 cells); test: Ca FLIPR TETRA assay, ANTAGONIST mode, activator 3.1 U/mL trypsin; details: HT-29 cells, activator 3.1 U/mL trypsin
Outline: as §1

[3] = test system: Thrombin-stimulated Ca2+ response in HT-29 cells; test: Ca FLIPR TETRA assay, ANTAGONIST mode, activator 1 U/mL Thrombin; details: HT-29 cells, activator 1 U/mL Thrombin
Outline: as §1

[4] = test system: UTP-stimulated Ca2+ response in HT-29 cells; test: Ca FLIPR TETRA assay, ANTAGONIST mode, activator 0.6 μM UTP; details: HT-29 cells, activator 0.6 μM UTP
Outline: as §1

[5] = Method A: maximal concentration of antagonist 0.1, 1 or 2 μM
[6] = maximal antagonist concentration per Method (A: 0.1, 1 or 2 μM; B: 50 μM)

Row | Compound | IC50 (PAR2 (HT-29 cells) [1]; [5]) [nM] | IC50 (PAR2 (HT-29 cells) [2]; [5]) [nM] | IC50 ([3]; Homo sapiens) [nM] | IC50 ([4]; Homo sapiens) [nM] | IC50 (PAR2 (HT-29 cells) [1]; [6]) [nM] | IC50 (PAR2 (HT-29 cells) [2]; [6]) [nM] | IC50 [3] [nM] | IC50 [4] [nM]
1 | CC(C)(C)c1cc(N2CC3(C2)CC(F)(F)C3)nc2cc(C(=O)N3CCN(C(=O)[C@H]4C[C@](C)(O)C4)CC3(C)C)oc12 [Example I-441] | 76 | 130 | > 2000 | > 2000 |  |  |  | 
2 | Cc1c(C(=O)O)ccnc1N1CCN(C(=O)c2cc3nc(-c4ccc(Cl)c(F)c4)cc(C(C)(C)C)c3o2)C(C)(C)C1 [Example I-538] | 0.6 | 0.6 | 1500 | 1470 |  |  |  | 
3 | CC(C)(C)c1cc(-c2ccc(Cl)c(F)c2)nc2cc(C(=O)N3CCN(C(=O)[C@@H]4CCCC[C@H]4C(=O)O)CC3(C)C)oc12 [Example I-506] | 23 | 21 | > 2000 | > 2000 |  |  |  | 
4 | CC(C)(C)c1cc(-c2ccc(Cl)cc2)nc2cc(C(=O)N3CCN(c4ccncc4)C(=O)C3(C)C)oc12 [Example I-328] | 16 | 22 | > 2000 | > 2000 |  |  |  | 
5 | CC(C)c1cc(-c2ccc(F)cc2)nc2cc(C(=O)N3CCN(S(=O)(=O)c4ccn(C)n4)CC3(C)C)oc12 [Example I-148] |  |  | > 1000 | > 1000 | 46 | 36 |  | 
6 | Cc1nc(C(=O)N2CCN(C(=O)c3cc4nc(C5CCC(F)(F)CC5)cc(C(C)(C)C)c4o3)C(C)(C)C2=O)n[nH]1 [Example I-221] |  |  |  |  | 32 | 58 | > 2000 | > 2000
7 | CC[C@@H](O)C(=O)N1CCN(C(=O)c2cc3nc(-c4ccc(F)cc4)cc(C4(C)CC4)c3o2)C[C@@H]1C [Example I-110] |  |  | 18000 | 14000 | 40 | 64 |  | 
8 | CC1(C)CCC(c2cc(C(C)(C)C)c3oc(C(=O)N4CCN(c5ccc(C(=O)O)cn5)C(=O)C4(C)C)cc3n2)CC1 [Example I-281, 6-[4-[7-tert-butyl-5-(4,4-dimethylcyclohexyl)furo[3,2-b]pyridine-2-carbonyl]-3,3-dimethyl-2-oxo-piperazin-1-yl]pyridine-3-carboxylic acid] |  |  | 1750 | > 2000 | 3.6 | 7.4 |  | 
9 | Cn1cnnc1N1CCN(C(=O)c2cc3nc(-c4ccc(Cl)cc4)cc(C(C)(C)C)c3o2)C(C)(C)C1 [Example I-505] | 14 | 9.6 | > 2000 | > 2000 |  |  |  | 
10 | CC(C)(C)c1cc(-c2ccc(F)cc2)nc2cc(C(=O)N3CCN(C(=O)c4ccc(C(=O)O)cc4)CC3(C)C)oc12 [Example I-192] |  |  | > 1000 | > 1000 | 14 | 13 |  | 
11 | CC(C)(C)c1cc(-c2ccc(Cl)c(F)c2)nc2cc(C(=O)N3CCN(c4cc(C(F)(F)F)cnc4C(=O)O)CC3(C)C)oc12 [Example I-515] | 16 | 21 | > 2000 | > 2000 |  |  |  | 
12 | CC(C)(C)c1cc(-c2ccc(Cl)c(F)c2)nc2cc(C(=O)N3CCN(c4nccc(C(=O)O)n4)CC3(C)C)oc12 [Example I-461] | 0.4 | 0.5 | 660 | 560 |  |  |  | 
13 | CC(C)(C)c1cc(-c2ccc(F)cc2)nc2cc(C(=O)N3CCN(c4ccn[nH]4)C(=O)C3(C)C)oc12 [Example I-235] |  |  | > 2000 | > 2000 | 5.6 | 9.4 |  | 
14 | Cc1ccc(N2CCN(C(=O)c3cc4nc(-c5ccc(Cl)c(F)c5)cc(C(C)(C)C)c4o3)C(C)(C)C2)nc1-c1nnn[nH]1 [Example I-532] | 0.3 | 0.3 | > 2000 | > 2000 |  |  |  | 
15 | C[C@H]1CN(C(=O)c2cc3nc(-c4ccc(F)cc4)cc(C4(C)CC4)c3o2)CCN1C(=O)C1(C#N)CC1 [Example I-119] |  |  | 1400 | 1600 | 620 | 560 |  | 
16 | CC(C)c1cc(-c2ccc(F)cc2)nc2cc(C(=O)N3CCNC(=O)C3(C)C)oc12 [Example I-7] |  |  | 3100 | 2700 | 23 | 20 |  | 
17 | CC(C)(C)c1cc(-c2ccc(Cl)c(F)c2)nc2cc(C(=O)N3CCN(c4cc(C(=O)O)c(F)cn4)CC3(C)C)oc12 [Example I-517] | 1.4 | 2.3 | > 2000 | > 2000 |  |  |  | 
